Tests used:
[1] = MTT cytotoxicity assay, BHK-21; type: cell-based, Syrian hamster; conditions: Syrian hamster
Excerpt: (§1) For selected compounds, 6a–6f, we performed a determination of the cytotoxicity in a wider variety of cancer and non-cancerous cell lines (see Table S2, Supplementary Materials) in order to learn the characteristic features of selectivity or the similarity of biological properties.
(§2) The HT-1080 (human connective tissue fibrosarcoma, ATCC® CCL-121™), MH-22A (mouse hepatocarcinoma, ECACC Cat. No. 96121721), A-549 (human lung carcinoma, ATCC® CCL-185™), NIH3T3 (Swiss Albino mouse embryo fibroblast, ECACC Cat. No. 93061524), Hek293 (human embryonic kidney, ATCC® CRL-1573™), BHK-21 (Syrian hamster kidney, ATCC® CCL-10™), A-431 (human epidermoid carcinoma, ATCC® CRL-1555™), Saos-2 (human osteosarcoma, ATCC® HTB-85™), HeLa (human epitheloid cervix carcinoma, ATCC® CCL-2™), U937 (human myeloid leukaemia, ATCC® CRL-1593.2™), C6 (rat glioma, ATCC® CCL-107™), and B16-F10 (murine melanoma, ATCC® CRL-6475™) cell lines were obtained from the American Type Culture Collection (ATCC) and European Collection of Authenticated Cell Cultures (ECACC).
(§3) HT-1080, MH-22A, A-549, NIH3T3, BHK-21, A-431, HeLa, and B16-F10 cells were cultured in Dulbecco’s Modified Eagle’s Medium (DMEM) with 2 mM glutamine and 10% foetal bovine serum (FBS). Hek293 cells were cultured in Eagle’s Minimum Essential Medium with 10% foetal bovine serum. U937 cells were cultured in RPMI-1640 Medium with 2 mM glutamine and 10% foetal bovine serum. C6 cells were cultured in Ham’s F12 Medium with 2 mM glutamine and 10% foetal bovine serum. Saos-2 cells were cultured in McCoy’s 5a Medium with 2 mM glutamine and 10% foetal bovine serum. The cells were incubated at 37 °C with 5% CO2, 95% air, and complete humidity. Once ~90% confluence was reached, they were detached using 0.05% trypsin/EDTA and counted. The cells were plated at optimally determined densities for the logarithmic phase of growth. These cells were then suspended at a concentration of 4000 cells/well for HT-1080, MH-22A, A-549, NIH3T3, BHK-21, A-431, HeLa, B16-F10, Hek293, and Saos-2 cells and a concentration of 9000 cells/well for U937, C6, Hek293, and GM08402 cells and added onto a 96-well plate. For background absorption, some wells remained cell free, i.e., as a blank control. Cells were incubated for 72 h at 37 °C and 5% CO2 where they were exposed to a media containing serial dilutions of the investigated compounds (n = 3). Cell viability was measured using the 3-(4,5-dimethylthiazol-2-yl)-2,5-diphenyl-tetrazolium bromide (MTT) assay. In brief, after incubating with compounds, the culture medium was removed and fresh medium with 0.2 mg/mL MTT was added to each well of the plate. After incubation (3 h, 37 °C, 5% CO2), the medium with MTT solution was removed and replaced with 200 µL DMSO and 25 µL Sorenson’s glycine buffer (glycine 0.1 M, NaCl 0.1 M, pH: 10.5 with 0.1 M NaOH). The plate was shaken for 15 min at room temperature and the optical density (OD) of the wells was determined using a multichannel spectrophotometer (Thermo Scientific Multiskan EX) at 540 nm. The quantity of the control cells was taken in calculations as 100%. The IC50 value was calculated using the program Graph Pad Prism® 3.0.
(§4) The HT-1080 (human connective tissue fibrosarcoma, ATCC® CCL-121™), MH-22A (mouse hepatocarcinoma, ECACC Cat.No. 96121721), A-549 (human lung carcinoma, ATCC® CCL-185™), NIH 3T3 (mouse Swiss Albino embryo fibroblast, ECACC Cat.No. 93061524), Hek293 (human embryonic kidney, ATCC® CRL-1573™), BHK-21 (hamster Syrian kidney, ATCC® CCL-10™), A-431 (human epidermoid carcinoma, ATCC® CRL-1555™), Saos-2 (human oste osarcoma, ATCC® HTB-85™) HeLa (human epitheloid cervix carcinoma, ATCC® CCL-2™), U937 (human myeloid leukaemia, ATCC® CRL-1593.2™), C6 (rat glioma, ATCC® CCL-107™), B16-F10 (murine melanoma, ATCC® CRL-6475™) cell lines were obtained from American Type Culture Collection (ATCC) and European Collection of Authenticated Cell Cultures […]
(§5) Table S2. […]

in vitro [2] = type: cell-based, human; conditions: human, MTT, 72 h
Excerpt: as §1, §2, §3, §4, §5

in vitro [3] = type: cell-based, rat; conditions: rat
Excerpt: as §1, §2
as §3, with “3.0. […]” for “3.0.”

in vitro [4] = type: cell-based, murine; conditions: mouse
Excerpt: as §1, §2
as §3, with “3.0. […]” for “3.0.”

[5] = UV/Vis absorption spectra in DMSO; type: physicochemical; conditions: 0.33 mM for 6a,b,d,f,g, 5 mM for 6c,e
Protocol: The resonance structures of compounds 6d,e (Figure 2a) show a possibly intramolecular charge transfer between the julolidine moiety and the pyridinium unit. The normalised fluorescence spectra of the tested compounds 6a–e and 7a,b in DMSO solution (Figure 2c) and the fluorescence spectra of compound 6e in various media (Figure 2d) were measured using a spectrophotometer multiplate reader (Infinite M1000). The UV/Vis spectra in DMSO solution of compounds 6a–g (Figure 2b) were reordered with a UV/Vis spectrophotometer, and the fluorescence spectra of compound 6e in EtOH–glycerol mixtures (Figure 2e) were collected with a Spectrofluorometer FS5.
The spectral properties (absorption and fluorescence maximum in DMSO solution) of compounds 6a–e and 7a,b, UV spectral data (extinction coefficient (log ε) and absorption maximum), values of Stokes’ shift, and fluorescence quantum yield are presented in Table 3.

[6] = Photoluminescence quantum yield (PLQY); type: physicochemical; conditions: DMSO solution
Protocol: Photoluminescence quantum yield (PLQY) values for the DMSO solution of compounds 6a–g were measured (Table 3, entry 4). […] The PLQY values for the SP derivatives 6f,g (each with an N-dimethylaminophenyl moiety) were 1.6% and 1.4%, respectively. The PLQY value for the SP derivative 6c (with a 4-dimethylaminophenyl moiety) was only 0.1%. The PLQY values for the SP derivatives 6d,e (each with a julolidinyl moiety) were 0.5% and 0.7%, respectively. Previously, we designed naphthalene-2-yl)vinyl)pyridinium groups containing 1,4-dihydropyridine amphiphile, for which the PLQY value for the EtOH solution was 1% [20].

[7] = cancer cell line, read-out: Cytotoxicity IC50 A-431
[8] = cancer cell line, read-out: Cytotoxicity IC50 A-549
[9] = cancer cell line, read-out: Cytotoxicity IC50 HeLa
[10] = cancer cell line, read-out: Cytotoxicity IC50 Saos-2
[11] = cancer cell line, read-out: Cytotoxicity IC50 U937
[12] = non-cancerous cell line, read-out: Cytotoxicity IC50 Hek-293
[13] = cancer cell line, MTT, 72 h, read-out: Cytotoxicity IC50 C6
[14] = cancer cell line, MTT, 72 h, read-out: Cytotoxicity IC50 B16-F10

Row | SMILES | IC50 at 72 h ([1]; non-cancerous cell line, MTT, 72 h, read-out: Cytotoxicity IC50 BHK-21) [µg/mL] | IC50 at 72 h (in vitro [2]; [7]) [µg/mL] | IC50 at 72 h (in vitro [2]; [8]) [µg/mL] | IC50 at 72 h (in vitro [2]; [9]) [µg/mL] | IC50 at 72 h (in vitro [2]; [10]) [µg/mL] | IC50 at 72 h (in vitro [2]; [11]) [µg/mL] | IC50 at 72 h (in vitro [2]; [12]) [µg/mL] | IC50 at 72 h (in vitro [3]; [13]) [µg/mL] | IC50 at 72 h (in vitro [4]; [14]) [µg/mL] | abs. max., λ, nm [5] [nm] | log ε [5] | PLQY, % [6] [%] | IC50 at 72 h [1] [µg/mL] | IC50 at 72 h (in vitro [3]) [µg/mL] | IC50 at 72 h (in vitro [4]) [µg/mL]
1 | CCCCCCCCCCCC[n+]1ccc(C=Cc2cc(OC)c(OC)c(OC)c2)cc1.[Br-] [Compound 6a, 4-(3,4,5-trimethoxystyryl)-N-dodecylpyridinium bromide] | 1.01 | 0.87 | 0.87 | 0.59 | 0.37 | 1.01 | 0.22 | 0.86 | 0.8 | 384 | 5.46 | 15.1 | – | – | –
2 | CCCCCCCCCCCCCCCC[n+]1ccc(C=Cc2cc(OC)c(OC)c(OC)c2)cc1.[Br-] [Compound 6b] | – | – | – | – | – | – | – | – | – | 385 | 5.23 | 12.2 | – | – | –
3 | CCCCCCCCCCCCCCCC[n+]1ccc(C=CC=Cc2ccc(OC)cc2)cc1.[Br-] [Compound 6c, 1-hexadecyl-4-(4-(4-methoxyphenyl)buta-1,3-dien-1-yl)pyridin-1-ium bromide] | – | – | – | – | – | – | – | – | – | 408 | 4.26 | 0.1 | 0.35 | 0.6 | 0.49
4 | CCCCCCCCCCCC[n+]1ccc(C=Cc2cc3c4c(c2)CCCN4CCC3)cc1.[Br-] [Compound 6d, 1-dodecyl-4-(2-(2,3,6,7-tetrahydro-1H,5H-pyrido[3,2,1-ij]quinolin-9-yl)vinyl)pyridin-1-ium bromide] | – | 0.098 | 0.055 | 0.055 | 0.79 | 0.044 | 0.012 | 0.129 | 0.113 | – | – | 0.5 | 0.082 | – | –
5 | CCCCCCCCCCCCCCCC[n+]1ccc(C=CC=Cc2cc3c4c(c2)CCCN4CCC3)cc1.[Br-] [Compound 6e, 1-hexadecyl-4-(4-(2,3,6,7-tetrahydro-1H,5H-pyrido[3,2,1-ij]quinolin-9-yl)buta-1,3-dien-1-yl)pyridin-1-ium bromide] | – | 1.9 | 3 | 1.3 | 3.6 | 2.4 | 1.5 | 3.4 | 2.9 | 520 | 4.02 | 0.7 | 2.7 | – | –
